In this assay the target is T1, recombinant human sEH (hsEH) (Homo sapiens, UniProt P34913).
T1 construct: purchased Cayman Chemical 10011669
T1 sequence (P34913 1-555): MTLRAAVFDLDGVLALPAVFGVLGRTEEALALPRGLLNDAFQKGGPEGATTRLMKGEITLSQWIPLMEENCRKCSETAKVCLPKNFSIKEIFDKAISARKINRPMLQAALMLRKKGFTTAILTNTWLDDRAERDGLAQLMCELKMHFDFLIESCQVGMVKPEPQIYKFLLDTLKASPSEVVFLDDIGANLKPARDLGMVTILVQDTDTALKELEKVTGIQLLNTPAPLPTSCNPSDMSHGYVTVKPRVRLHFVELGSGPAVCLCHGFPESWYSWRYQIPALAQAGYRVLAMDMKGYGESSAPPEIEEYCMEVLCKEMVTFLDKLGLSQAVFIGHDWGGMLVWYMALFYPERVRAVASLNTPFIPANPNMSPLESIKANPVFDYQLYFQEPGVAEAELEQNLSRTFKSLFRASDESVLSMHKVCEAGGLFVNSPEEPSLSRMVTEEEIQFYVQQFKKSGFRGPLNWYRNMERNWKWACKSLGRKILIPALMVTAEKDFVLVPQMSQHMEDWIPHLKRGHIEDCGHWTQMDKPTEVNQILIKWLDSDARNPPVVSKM
The assay can be described thus: In vitro determination of sEH inhibition activity (fluorescent assay, PHOME substrate). Type of assay: biochemical. To be noted: fluorescence, Bis/Tris HCl pH 7.0 with 0.1 mg/mL BSA. As for the experimental part:
Add 5 μL of DMSO to background and positive control wells, and then add 5 μL of inhibitor solution in inhibitor wells. Add 5 μL of the solution of hsEH to the positive control and inhibitor wells and stir the mixture. Prepare a 1/21 dilution of the solution of PHOME with assay buffer according to final volume required, and then add 105 μL of each well. Shake carefully the plate for 10 seconds and incubate for 5 minutes at room temperature. […] The intensity of fluorescence was used to analyze and calculate the IC50 values. Results were obtained by regression analysis from at least three data points in a linear region of the curve. IC50 values are average of minimum three independent replicates.

Each structure is given as a SMILES string. A value given as a limit tells only on which side of the number the result lay.

For orientation: IC50 means the midpoint of a concentration-inhibition curve. Regarding `CC12CC3CC(NC(=O)NC4CCN(C(=O)c5ccccc5F)CC4)(CC(C1)c1ccccc13)C2` [Example 66, 1-(1-(2-fluorobenzoyl)piperidin-4-yl)-3-(9-methyl-5,6,8,9,10,11-hexa-hydro-7H-5,9:7,11-dimethanobenzo[9]annulen-7-yl)urea], the IC50 was < 10 nM.

As to `CC(=O)N1CCC(NC(=O)NC23CC4CC(C)(CC(C2)c2cc(N)ccc24)C3)CC1` (centres unmarked) [Example 53, 1-(1-acetylpiperidin-4-yl)-3-(2-amino-9-methyl-5,6,8,9,10,11-hexa-hydro-7H-5,9:7,11-dimethanobenzo[9]annulen-7-yl)urea], the IC50 lay in the range of 10 to 50 nM.

`CC12CC3CC(NC(=O)NC4CCN(Cc5ccccc5)CC4)(CC(C1)c1ccccc13)C2` [Example 48, 1-(1-benzylpiperidin-4-yl)-3-(9-methyl-5,6,8,9,10,11-hexahydro-7H-5,9:7,11-dimethanobenzo[9]annulen-7-yl)urea]: the IC50 is < 10 nM.

For `CC12CC3CC(NC(=S)Nc4ccc(C(F)(F)F)cc4)(CC(C1)c1ccccc13)C2` [Example 35, 1-(9-methyl-5,6,8,9,10,11-hexahydro-7H-5,9:7,11-dimethanobenzo[9]annulen-7-yl)-3-(4-(trifluoromethyl)phenyl)thiourea], the half-inhibitory concentration (IC50) fell in the range of 100 to 1000 nM.

For `CC(C)S(=O)(=O)N1CCC(CC(=O)NC23CC4CC(C)(CC(C2)c2ccccc24)C3)CC1` [Example 56, 2-[1-(isopropylsulfonyl)piperidin-4-yl]-N-(9-methyl-5,6,8,9,10,11-hexahydro-7H-5,9:7,11-dimethanobenzo[9]annulen-7-yl)acetamide], the IC50 fell in the range of 10 to 50 nM.

`CC(=O)N1CCC(NC(=O)NC23CC4CC2CC(C3)c2ccccc24)CC1` [Example 72, 1-(1-acetylpiperidin-4-yl)-3-(5,8,9,10-tetrahydro-5,8:7,10-dimethano-benzo[8]annulen-7(6H)-yl)urea]: the IC50 is 10 to 50 nM.

With `CC12CC3CC(NC(=O)NC4CC5CCC(C4)N5Cc4ccccc4)(CC(C1)c1ccccc13)C2` [Example 67, 1-((1R,3s,5S)-8-benzyl-8-azabicyclo[3.2.1]octan-3-yl)-3-(9-methyl-5,6,8.9.10,11-hexahydro-7H-5.9:7,11-dimethanobenzo[9]annulen-7-yl)urea], the half-inhibitory concentration (IC50) was < 10 nM.

Consider `CC12CC3CC(NC(=O)Nc4ccc(F)c(F)c4F)(CC(C1)c1ccccc13)C2` [Example 58, 1-(9-methyl-6,7,8,9,10,11-hexahydro-5H-5,9:7,11-dimethanobenzo[9]annulen-7-yl)-3-(2,3,4-trifluorophenyl)urea], for which the IC50 is < 10 nM.

`CC12CC3CC(NC(=O)Nc4ccc(F)c(F)c4F)(CC(C1)c1ccccc13)O2` [Example 59, 1-(5-methyl-1,5,6,7-tetrahydro-1,5:3,7-dimethanobenzo[e]oxonin-3(2H)-yl)-3-(2,3,4-trifluorophenyl)urea]: the concentration for half-maximal inhibition (IC50) is 10 to 50 nM.

In the case of `CC(=O)N1CCC(NC(=O)NC23CC4CC(C)(CC(C2)c2cc(F)ccc24)C3)CC1` (centres unmarked) [Example 68, 1-(1-acetylpiperidin-4-yl)-3-(2-fluoro-9-methyl-5,6,8,9,10,11-hexahydro-7H-5,9:7,11-dimethanobenzo[9]annulen-7-yl)urea], the half-inhibitory concentration (IC50) is < 10 nM.

In the case of `COC12CC3CC(NC(=O)Nc4nc5ccccc5s4)(CC(C1)c1ccccc13)C2` [Example 73, 1-(benzo[d]thiazol-2-yl)-3-(9-methoxy-5,6,8,9,10,11-hexahydro-7H-5,9:7,11-dimethanobenzo[9]annulen-7-yl)urea], the IC50 was in the range of 100 to 1000 nM.

In the case of `COc1ccc2c(c1)C1CC3(C)CC2CC(NC(=O)NC2CCN(C(C)=O)CC2)(C1)C3` (centres unmarked) [Example 69, 1-(1-acetylpiperidin-4-yl)-3-(2-methoxy-9-methyl-5,6,8,9,10,11-hexa-hydro-7H-5.9:7,11-dimethanobenzo[9]annulen-7-yl)urea], the 50% inhibitory concentration (IC50) was < 10 nM.

Regarding `CC(=O)N1CCC(CC(=O)NC23CC4CC(C)(CC(C2)c2ccccc24)C3)CC1` [Example 57, 2-(1-acetylpiperidin-4-yl)-N-(9-methyl-5,6,8,9,10,11-hexahydro-7H-5,9:7,11-dimethanobenzo[9]annulen-7-yl)acetamide], the IC50 was 100 to 1000 nM.

`COc1cc2c(cc1OC)C1CC3(C)CC2CC(NC(=O)NC2CCN(C(C)=O)CC2)(C1)C3` [Example 71, 1-(1-acetylpiperidin-4-yl)-3-(2,3-dimethoxy-9-methyl-5,6,8,9,10,11-hexahydro-7H-5.9:7,11-dimethanobenzo[9]annulen-7-yl)urea]: the IC50 is < 10 nM.

In the case of `CC(=O)N1CCC(NC(=O)NC23CC4CC(C)(CC(C2)c2cc([N+](=O)[O-])ccc24)C3)CC1` (centres unmarked) [Example 52, 1-(1-acetylpiperidin-4-yl)-3-(9-methyl-2-nitro-5,6,8,9,10,11-hexahydro-7H-5,9:7,11-dimethanobenzo[9]annulen-7-yl)urea], the half-inhibitory concentration (IC50) is < 10 nM.

Regarding `CC(=O)c1ccc2c(c1)C1CC3(C)CC2CC(NC(=O)NC2CCN(C(C)=O)CC2)(C1)C3` (centres unmarked) [Example 51, 1-(2-acetyl-9-methyl-5,6,8,9,10,11-hexahydro-7H-5,9:7,11-dimethano-benzo[9]annulen-7-yl)-3-(1-acetylpiperidin-4-yl)urea], the IC50 was < 10 nM.

Consider `CC(=O)N1CCC(NC(=O)NC23CC4CC(C)(CC(C2)c2c(F)cccc24)C3)CC1` (centres unmarked) [Example 70, 1-(1-acetylpiperidin-4-yl)-3-(1-fluoro-9-methyl-5,6,8,9,10,11-hexahydro-7H-5,9:7,11-dimethanobenzo[9]annulen-7-yl)urea], for which the IC50 is < 10 nM.

Take `CC12CC3CC(NC(=O)CC4CCN(Cc5ccccc5)CC4)(CC(C1)c1ccccc13)C2` [Example 60, 2-(1-benzylpiperidin-4-yl)-N-(9-methyl-5,6,8,9,10,11-hexahydro-7H-5.9:7,11-dimethanobenzo[9]annulen-7-yl)acetamide]: the IC50 is 100 to 1000 nM.

For the molecule `CC(=O)N1CCC(NC(=O)NC23CC4CC(F)(CC(C2)c2c(F)cccc24)C3)CC1` (centres unmarked) [Example 74, 1-(1-acetylpiperidin-4-yl)-3-(1,9-difluoro-5,6,8,9,10,11-hexahydro-7H-5,9:7,11-dimethanobenzo[9]annulen-7-yl)urea], the IC50 was < 10 nM.

Turning to `CC12CC3CC(NC(=O)NC4CCC(Oc5ccc(C(=O)O)cc5)CC4)(CC(C1)c1ccccc13)O2` (centres unmarked) [Example 43, 4-(((1r,4r)-4-(3-(5-methyl-1,5,6,7-tetrahydro-1,5:3,7-dimethanobenzo [e]oxonin-3(2H)-yl)ureido)cyclohexyl)oxy)benzoic acid], the IC50 is 10 to 50 nM.

Take `CC(=O)c1ccc(N2CCC(NC(=O)NC34CC5CC(C)(CC(C3)c3ccccc35)C4)CC2)cc1` [Example 64, 1-(1-(4-acetylphenyl)piperidin-4-yl)-3-(9-methyl-5,6,8,9,10,11-hexahydro-7H-5,9:7,11-dimethanobenzo[9]annulen-7-yl)urea]: the IC50 is < 10 nM.

On to `CC12CC3CC(NC(=O)NC4CCC(Oc5ccc(C(=O)O)cc5)CC4)(CC(C1)c1ccccc13)C2` (centres unmarked) [Example 44, 4-(((1r,4r)-4-(3-(9-methyl-5,6,8,9,10,11-hexahydro-7H-5,9:7,11-dimethanobenzo[9]annulen-7-yl)ureido)cyclohexyl)oxy)benzoic acid], for which the IC50 was < 10 nM.

Turning to `CC(=O)N1CCC(NC(=O)NC23CC4CC(C)(CC(C2)c2ccccc24)O3)CC1` [Example 36, 1-(1-acetylpiperidin-4-yl)-3-(5-methyl-1,5,6,7-tetrahydro-1,5:3,7-dimethanobenzo[e]oxonin-3(2H)-yl)urea], the IC50 was 100 to 1000 nM.
